The target of test [1] is T1, Prostate specific membrane antigen (Homo sapiens, UniProt Q04609).
T1 construct: Prostate specific membrane antigen was immuno precipitated from the prostate cancer cell line LNCaP; endogenous in cells; host or cells: LNCaP (immunoprecipitate)
In words: Inhibition of neuropeptidase activity (NAAG as substrate) of immunoprecipitated PSM. Format: biochemical. An excerpt:
PSM may have activities both as a folate hydrolase and a carboxyneuropeptidase. For the cytotoxic drug methotrexate to be a tumor toxin it has to get into the cell and be polygammaglutamated which to be active, because polyglutamated forms serve as the enzyme substrates and because polyglutamated forms or toxins are also retained by the cell. Folate hydrolase is a competing reaction and deglutamates methotrexate which then can diffuse back out of the cell. Cells that overexpose folate hydrolase activity are resistant to methotrexate. Prostate cancer has always been absolutely refractory to methotrexate therapy and this may explain why, since the prostate and prostate cancer has a lot of folate hydolase activity. However, based on this activity, prodrugs may be generated which would be activate at the site of the tumor such as N-phosphonoacetyl-1-aspartate-glutamate.
Folate is necessary for the support of cell function and growth and thus this enzyme may serve to modulate folate access to the prostate and prostate tumor. The other area where PSM is expressed is in the small intestine. It turns out that a key enzyme of the small intestine that is involved in folate uptake acts as a gamma-carboxypeptidase in sequentially proteolytically removing the terminal gammaglutaminyl group from folate. […]

Test [2] deals with T2, PSM enzyme (folate hydrolase) (Homo sapiens, UniProt Q04609).
T2 construct: membrane preparations from androgen-sensitive human prostatic carcinoma cells (LNCaP); endogenous in cells; host or cells: LNCaP cell membranes
The class given is biochemical. The conditions noted are these: for hydrolysis as substrate by the PSM enzyme (in words): LNCaP membrane preparations. An excerpt:
Using capillary electrophoresisis pteroyl poly-gamma-glutamate carboxypeptidase (hydrolase) activity was investigated in membrane preparations from androgen-sensitive human prostatic carcinoma cells (LNCaP).

The subject of test [3] is PSM mRNA expression in LNCaP cells. In words: Modulation of PSM mRNA expression by cytokines and growth factors, Northern blot and laser densitometry. The class given is cell-based, human. As to conditions: 24 to 72 hours, 0.1 ng/ml to 100 ng/ml; for upregulation of PSM expression compared to untreated LNCaP: androgen-depleted media; for downregulation of PSM expression: androgen depleted LNCaP cells. An excerpt: Total RNA was extracted from the cells and PSM mRNA expression was quantitated by Northern blot analysis and laser densitometry.

A further test concerns LNCaP cells. In words: Mitogenic response to transferrin, cell count. Format: cell-based, human.
For another test, the system named is PC-3 cells. In words: Mitogenic response to transferrin, cell count. The class given is cell-based, human. As to conditions: 1 μg per ml holotransferrin, counted at 5 days. On the procedure: 2×10^4 PC-3 or PSM-transfected PC-3 cells per well ere plated in RPMI medium supplemented with 10% fetal bovine serum and at 24 hrs. added 1 μg per ml. of holotransferrin to the cells. […] Cells were counted at 1 day to determine plating efficiency and at 5 days to determine the effect of the transferrin. Experiments were repeated to verify the results.

For test [4], the system named is PSM mRNA expression in LNCaP cells. In words: Steroid modulation of PSM mRNA expression, ribonuclease protection assay. Format: cell-based, human. As to conditions: 24 hours; for downregulation of PSM mRNA expression: charcoal-extracted serum media, steroid 2 nM; for effect on PSM mRNA expression (in words): physiologic doses of steroids. From the text:
A portion of the PSM cDNA was subcloned into the plasmid vector pSPORT 1 (Gibco-BRL) and the orientation of the cDNA insert relative to the flanking T7 and SP6 RNA polymerase promoters was verified by restriction analysis. Linearization of this plasmid upstream of the PSM insert followed by transcription with SP6 RNA polymerase yields a 400 nucleotide antisense RNA probe, of which 350 nucleotides should be protected from RNase digestion by PSM RNA. This probe was used in FIG. 20. Plasmid IN-20, containing a 1 kb partial PSM cDNA in the plasmid pCR II (Invitrogen) was also used for riboprobe synthesis. IN-20 linearized with Xmn I (Gibco-BRL) yields a 298 nucleotide anti-sense RNA probe when transcribed using SP6 RNA polymerase, of which 260 nucleotides should be protected from RNase digestion by PSM mRNA. This probe was used in FIGS. 21 and 22. Probes were synthesized using SP6 RNA polymerase (Gibco-BRL), rNTPs (Gibco-BRL), RNAsin (Promega), and ^32P-rCTP (NEN, Wilmington, Del.) according to published protocols (13). Probes were purified over NENSORB 20 purification columns (NEN) and approximately 1 million cpm of purified, radiolabeled PSM probe was mixed with 10μ of each RNA and hybridized overnight at 45 C using buffers and reagents from the RPA II kit (Ambion, Austin, Tex.). Samples were processed as per manufacturer's instructions and analyzed on 5% polyacrilamide/7M urea denaturing gels using Seq ACRYL reagents (ISS, Natick, Mass.). Gels were pre-heated to 55 C and run for approximately 1-2 hours at 25 watts. Gels were then fixed for 30 minutes in 10% methanol/10% acetic acid, dried onto Whatman 3MM paper at 80 C in a BioRad vacuum dryer and autoradiographed overnight with Hyperfilm MP (Amersham). Quantitation of PSM expression was determined by using a scanning laser densitometer (LKB, Piscataway, N.J.).
LNCaP cells (2 million) were plated onto T-75 flasks in RPMI 1640 media supplemented with 5% fetal calf serum and grown 24 hours until approximately 30-40% confluent. Flasks were then washed several times with phophate-buffered saline and RPMI medium supplemented with 5% charcoal-extracted serum was added. Cells were then grown for another 24 hours, at which time dihydrotesterone, testosterone, estradiol, progesterone, and dexamethasone (Steraloids Inc., Wilton, N.H.) were added at a final concentration of 2 nM. Cells were grown for another 24 hours and RNA was then harvested as previously described and PSM expression analyzed by ribonuclease protection analysis.

The mark [5] stands for this setting: 0.05-0.5 mM, semi-purified membrane-bound enzyme.

Consider 15 molecules from patent US7037647B1, “Prostate-specific membrane antigen and uses thereof” (Sloan-Kettering Institute for Cancer Research, priority 1995, dated 2006).

Like-named read-outs stand apart in the source and are kept apart here.

For orientation: Ki means the equilibrium dissociation constant of an inhibitor or competing ligand from its target.

T2 sequence (Q04609 whole entry): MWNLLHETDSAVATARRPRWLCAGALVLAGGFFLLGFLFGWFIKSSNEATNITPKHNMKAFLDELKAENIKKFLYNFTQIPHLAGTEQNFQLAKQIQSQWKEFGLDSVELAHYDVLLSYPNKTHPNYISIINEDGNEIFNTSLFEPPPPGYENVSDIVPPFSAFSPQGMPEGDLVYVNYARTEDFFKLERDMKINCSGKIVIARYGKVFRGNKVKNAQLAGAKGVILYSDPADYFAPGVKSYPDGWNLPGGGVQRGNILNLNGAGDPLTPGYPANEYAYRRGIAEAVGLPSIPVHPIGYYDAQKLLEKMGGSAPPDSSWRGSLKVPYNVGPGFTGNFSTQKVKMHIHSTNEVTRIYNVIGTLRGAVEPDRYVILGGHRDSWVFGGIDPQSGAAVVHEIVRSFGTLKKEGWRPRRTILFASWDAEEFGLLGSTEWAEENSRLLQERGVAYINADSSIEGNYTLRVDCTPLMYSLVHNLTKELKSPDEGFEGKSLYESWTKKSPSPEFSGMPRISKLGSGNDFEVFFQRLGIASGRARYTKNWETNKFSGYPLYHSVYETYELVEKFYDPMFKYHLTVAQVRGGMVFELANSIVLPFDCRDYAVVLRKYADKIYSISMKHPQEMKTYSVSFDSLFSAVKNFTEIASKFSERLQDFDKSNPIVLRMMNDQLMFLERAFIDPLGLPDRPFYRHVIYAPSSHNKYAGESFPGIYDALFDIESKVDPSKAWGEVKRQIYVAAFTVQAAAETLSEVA
T1 sequence (Q04609 whole entry): as above

Regarding `O=C(O)CC[C@H](NC(=O)[C@H](CC(=O)O)NC(=O)CP(=O)(O)O)C(=O)O` [PALglu, N-phosphonoacetyl-1-aspartate-glutamate], in test [1] (NAAG as a substrate), the “inhibition of neuropeptidase activity (in words)” value is “is an inhibitor of the enzyme activity”.
With `O[C@@H](CS)[C@@H](O)CS` [dithfothreitol], the “inhibition of enzymatic activity (in words)” value in test [2] (≧0.2 mM, semi-purified membrane-bound enzyme) is given as “weakly inhibited”.
Take `N[C@@H](CCS)C(=O)O` [homocysteine]: in test [2] (setting [5]), the “inhibition of enzymatic activity (in words)” value is recorded as “not”.
As for “TGFα: growth factor, mitogenic for aggressive prostate cancer cells”, in test [3], the “upregulation of PSM expression compared to untreated LNCaP” value is 10 fold.
On to `N[C@@H](CCC(=O)N[C@@H](CS)C(=O)NCC(=O)O)C(=O)O` [reduced glutathione], for which the “inhibition of enzymatic activity (in words)” value in test [2] was “not”.
Turning to “transferrin: holotransferrin added at 1 μg per ml to the cells”, the “stimulation of cell growth” value in the test on LNCaP cells was 43%. Further, in the test with PC-3 cells, the “average increase in cell growth over controls” value came out at 275%.
In the case of Penta-gammaglutamyl-folate, the “hydrolysis as substrate by the PSM enzyme (in words)” value in test [2] was “liberates progressively glutamates”. The inhibitory constant (Ki) in test [1] (read-out: Ki, inhibition of the activity of the enzyme) stood at 500 nM.
On to `C[C@]12CC[C@H]3[C@@H](CCC4=CC(=O)CC[C@@]43C)[C@@H]1CC[C@@H]2O` [testosterone], for which, in test [4], the “downregulation of PSM mRNA expression” value is reported as 3-4 fold and the “effect on PSM mRNA expression (in words)” value is listed as “significantly diminished PSM expression”.
With TNFα, the “downregulation of PSM expression” value in test [3] is on record as 8 fold.
Turning to b-FGF: growth factor, in test [3], the “upregulation of PSM expression compared to untreated LNCaP” value was 10 fold.
Take `CC(=O)[C@H]1CC[C@H]2[C@@H]3CCC4=CC(=O)CC[C@]4(C)[C@H]3CC[C@]12C` [progesterone]: the results for the “effect on PSM mRNA expression (in words)” value in test [4] and in test [4] (listed as Progesterone) were “downregulated PSM expression” and “significantly diminished PSM expression”, respectively.
As for `CN(Cc1cnc2nc(N)nc(N)c2n1)c1ccc(C(=O)N[C@@H](CCC(=O)N[C@@H](CCC(=O)N[C@@H](CCC(=O)O)C(=O)O)C(=O)O)C(=O)O)cc1` [MTXGlu3, methotrexate triuglutamate], in test [2], the “hydrolysis as substrate by the PSM enzyme (in words)” value is recorded as “liberates progressively glutamates”.
Consider `C[C@]12CCC(=O)C[C@@H]1CC[C@@H]1[C@@H]2CC[C@]2(C)[C@@H](O)CC[C@@H]12` [DHT, dihydrotesterone], for which, in test [4], the “doses at which maximal downregulation of PSM mRNA was seen” value is 2 to 20 nM, the “downregulation of PSM mRNA expression” value is recorded as 8-10 fold and the “effect on PSM mRNA expression (in words)” value is on record as “significantly diminished PSM expression”.
`O=C(O)c1cc[c]([Hg+])cc1.[OH-]` [p-hydroxymercuribenzoate]: the “inhibition of enzymatic activity (in words)” value in test [2] (setting [5]) is on record as “not”.

B1: TNFβ: cytokine (protein, UniProt P01374 35-205, looked up)
Lymphotoxin-alpha: LPGVGLTPSAAQTARQHPKMHLAHSTLKPAAHLIGDPSKQNSLLWRANTDRAFLQDGFSLSNNSLLVPTSGIYFVYSQVVFSGKAYSPKATSSPLYLAHEVQLFSSQYPFHVPLLSSQKMVYPGLQEPWLHSMYHGAAFQLTQGDQLSTHTDGIPHLVLSPSTVFFGAFAL
Turning to B1, the “downregulation of PSM expression” value in test [3] turned out to be 8 fold.
